The results in this text go back to patent US20100105629A1, “N-Substituted Peptidomimetic Inhibitors of Dipeptidylpeptidase IV” (priority 2007, published 2010).

For this assay, the target named is T1, Dipeptidyl peptidase IV (Homo sapiens, UniProt P27487).
T1 construct: Dipeptidyl peptidase IV was purified from human placenta; from tissue; host or cells: human placenta
Briefly: DPP IV inhibition assay (chromogenic substrate Ala-Pro-p-nitroanalide). The following applies: Xaa-N(Methyl)-boroGly series; for IC50: 10 min incubation with enzyme, assay 25° C.; for Cyclization Index (CI): ratio of the IC50 at pH 8 and the IC50 at pH 2. Format: biochemical. On the procedure:
Dipeptidyl peptidase IV was purified from human placenta. Assays were performed at room temperature (25° C.) in 100 mM HEPES, pH 8.0, 0.14 M NaCl with the chromogenic substrate Ala-Pro-p-nitroanalide (Bachem) using a Molecular Devices SPECTRAmax 340PC^384 microtiter plate reader Inhibitor stocks (1 mg/mL) were prepared in 0.01 N HCl solution for pH 2.0 and in pH 8.0 HEPES buffer for pH 8.0. Both stocks were equilibrated at corresponding pH overnight at room temperature. The 1:10 dilution of inhibitor stocks was done with 0.01 N HCl for pH 2.0 and with pH 8.0 HEPES buffer for pH 8.0 immediately preceding the enzymatic reactions. Enzymatic reactions were carried out by incubating 250 μL of approximately 0.35 nM DPP IV with 30 μL of various inhibitor concentrations (ranging between 10^−3 and 10^−10 M) for 10 minutes before addition of 30 μL of 300 μM substrate. The absorbance at 410 nm was measured 30 minutes after addition of the substrate. Assays and their corresponding measurements were performed in triplicate. The negative control was prepared exactly the same as above, except that 30 μL of 0.01 N HCl was added instead of inhibitor solutions.
After a 10 minute incubation with the enzyme before addition of the substrate. The IC50 values were determined by fitting the data to a sigmoidal dose-response curve using non-linear regression in Prism 3.0 (Graph Pad).

Setting [1] is: inhibitor stock equilibrated overnight at pH 2.0 (0.01 N HCl), HEPES pH 8.0, read-out: IC50 (pH 2).
Where [2] appears, read: inhibitor stock equilibrated overnight at pH 8.0 (HEPES buffer), read-out: IC50 (pH 8).

Like-named read-outs stand apart in the source and are kept apart here.

T1 sequence (P27487 whole entry): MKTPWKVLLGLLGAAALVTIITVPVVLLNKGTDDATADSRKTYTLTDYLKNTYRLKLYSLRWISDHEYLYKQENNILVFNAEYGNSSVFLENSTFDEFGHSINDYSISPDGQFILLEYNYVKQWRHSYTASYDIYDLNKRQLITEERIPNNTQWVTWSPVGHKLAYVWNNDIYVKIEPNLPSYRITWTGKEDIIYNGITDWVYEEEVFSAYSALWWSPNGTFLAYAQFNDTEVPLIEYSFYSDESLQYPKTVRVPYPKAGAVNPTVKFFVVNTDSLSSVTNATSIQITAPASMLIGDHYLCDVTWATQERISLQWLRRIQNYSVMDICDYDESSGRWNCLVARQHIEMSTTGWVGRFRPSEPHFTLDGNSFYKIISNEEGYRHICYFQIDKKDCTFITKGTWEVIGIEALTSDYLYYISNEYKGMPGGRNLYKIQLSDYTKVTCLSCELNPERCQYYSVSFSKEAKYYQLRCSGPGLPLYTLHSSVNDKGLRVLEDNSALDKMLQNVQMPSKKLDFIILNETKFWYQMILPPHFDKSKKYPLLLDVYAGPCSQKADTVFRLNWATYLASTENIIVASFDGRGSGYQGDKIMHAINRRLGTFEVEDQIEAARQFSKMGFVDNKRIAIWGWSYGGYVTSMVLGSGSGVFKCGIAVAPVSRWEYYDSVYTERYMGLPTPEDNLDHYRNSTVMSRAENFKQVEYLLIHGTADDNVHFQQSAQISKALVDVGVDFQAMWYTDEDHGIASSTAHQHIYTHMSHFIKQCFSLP

One may read the IC50 as the concentration at which inhibition is half-maximal. Consider `CSCC[C@H](N)C(=O)N(C)CB(O)O` [Met, H-(S)-Met-boroSar], for which the “Cyclization Index (CI)” value is recorded as under 100. The concentration for half-maximal inhibition (IC50) under setting [1] was under 0.4 µM. Also, the 50% inhibitory concentration (IC50) under setting [2] is under 25 µM.

Consider `CN(CB(O)O)C(=O)CNC(C)(C)C` [N-t-Butyl-Gly, H-N-(tBu)-Gly-boroSar], for which the “Cyclization Index (CI)” value is under 1. Under setting [1], the concentration for half-maximal inhibition (IC50) was under 0.15 µM. In addition, the IC50 under setting [2] is under 0.15 µM.

On to `C[C@@H](O)[C@H](N)C(=O)N(C)CB(O)O` [Thr, H-(S)-Thr-boroSar], for which the “Cyclization Index (CI)” value is reported as under 100. The IC50 under setting [1] was under 0.7 µM. Also, under setting [2], the IC50 is under 50 µM.

As to `CC(C)(C)C(N)C(=O)O` (stereo not drawn) [t-Butyl-Gly], the “Cyclization Index (CI)” value is recorded as under 1. Besides, the IC50 under setting [1] was under 0.15 µM. The IC50 under setting [2] is under 0.15 µM.

Turning to H-(S)-N-(Me)-Ala-boroSar [N-Methyl-Ala], the “Cyclization Index (CI)” value was under 5. Further, under setting [1], the half-maximal inhibitory concentration (IC50) is under 75 µM. For the same compound, the 50% inhibitory concentration (IC50) under setting [2] is under 1000 µM.
